Experimental data from BindingDB's records for doi:10.1021/jm060797q (Teikyo University, 2006).

Assay: Antagonist activity against 1-alpha,25-dihydroxy vitamin D3-induced HL60 cell differentiation by NBT reduction method

Structure (SMILES)	IC50
C=C1/C(=C\C=C2/CCC[C@]3(C)[C@@H]([C@H](C)C[C@H]4OC(=O)C(=C)[C@H]4CC(C)C)CC[C@@H]23)C[C@@H](O)[C@H](C)[C@@H]1O	11 nM
C=C1/C(=C\C=C2/CCC[C@]3(C)[C@@H]([C@H](C)C[C@H]4OC(=O)C(=C)[C@@H]4CCC)CC[C@@H]23)C[C@@H](O)[C@H](CCCO)[C@@H]1O	6.3 nM
C=C1/C(=C\C=C2/CCC[C@]3(C)[C@@H]([C@H](C)C[C@@H]4OC(=O)C(=C)[C@H]4CCC)CC[C@@H]23)C[C@@H](O)[C@H](CCCO)[C@@H]1O	6.3 nM
C=C1C(=O)O[C@@H](C[C@@H](C)[C@H]2CC[C@H]3/C(=C/C=C4/C[C@@H](O)[C@H](C)[C@H](O)C4=C)CCC[C@]23C)[C@@H]1C	6.8 nM
C=C1/C(=C\C=C2/CCC[C@]3(C)[C@@H]([C@H](C)C[C@H]4OC(=O)C(=C)[C@@H]4CCCC)CC[C@@H]23)C[C@@H](O)[C@H](CCCO)[C@@H]1O	8.8 nM
C=C1/C(=C\C=C2/CCC[C@]3(C)[C@@H]([C@H](C)C[C@@H]4OC(=O)C(=C)[C@@H]4CC)CC[C@@H]23)C[C@@H](O)[C@H](CCCO)[C@@H]1O	8.4 nM
C=C1/C(=C\C=C2/CCC[C@]3(C)[C@@H]([C@H](C)C[C@@H]4OC(=O)C(=C)[C@@H]4CC)CC[C@@H]23)C[C@@H](O)[C@H](OCCCO)[C@@H]1O	8.4 nM
C=C1/C(=C\C=C2/CCC[C@]3(C)[C@@H]([C@H](C)C[C@H]4OC(=O)C(=C)C4(C)C)CC[C@@H]23)C[C@@H](O)C[C@@H]1O	6 nM
C=C1/C(=C\C=C2/CCC[C@]3(C)[C@@H]([C@H](C)C[C@H]4OC(=O)C(=C)[C@@H]4C)CC[C@@H]23)C[C@@H](O)[C@H](OCCCO)[C@@H]1O	6.1 nM
C=C1/C(=C\C=C2/CCC[C@]3(C)[C@@H]([C@H](C)C[C@@H]4OC(=O)C(=C)[C@@H]4CC(C)C)CC[C@@H]23)C[C@@H](O)[C@H](C)[C@@H]1O	11 nM
C=C1/C(=C\C=C2/CCC[C@]3(C)[C@@H]([C@H](C)C[C@H]4OC(=O)C(=C)[C@H]4CCCC)CC[C@@H]23)C[C@@H](O)[C@H](C)[C@@H]1O	6.7 nM
C=C1/C(=C\C=C2/CCC[C@]3(C)[C@@H]([C@H](C)C[C@H]4OC(=O)C(=C)[C@H]4CCC)CC[C@@H]23)C[C@@H](O)[C@H](C)[C@@H]1O	6.3 nM
C=C1C(=O)O[C@@H](C[C@@H](C)[C@H]2CC[C@H]3/C(=C/C=C4/C[C@@H](O)C[C@H](O)C4=C)CCC[C@]23C)[C@@H]1CCC	6 nM
C=C1/C(=C\C=C2/CCC[C@]3(C)[C@@H]([C@H](C)C[C@H]4OC(=O)C(=C)[C@H]4CCCC)CC[C@@H]23)C[C@@H](O)[C@H](CCCO)[C@@H]1O	8.8 nM
C=C1/C(=C\C=C2/CCC[C@]3(C)[C@@H]([C@H](C)C[C@H]4OC(=O)C(=C)[C@@H]4CC(C)C)CC[C@@H]23)C[C@@H](O)[C@H](C)[C@@H]1O	11 nM
C=C1/C(=C\C=C2/CCC[C@]3(C)[C@@H]([C@H](C)C[C@@H]4OC(=O)C(=C)[C@@H]4CC)CC[C@@H]23)C[C@@H](O)C[C@@H]1O	8.6 nM
C=C1/C(=C\C=C2/CCC[C@]3(C)[C@@H]([C@H](C)C[C@H]4OC(=O)C(=C)[C@@H]4CC(C)C)CC[C@@H]23)C[C@@H](O)C[C@@H]1O	10 nM
C=C1/C(=C\C=C2/CCC[C@]3(C)[C@@H]([C@H](C)C[C@@H]4OC(=O)C(=C)[C@@H]4CCC)CC[C@@H]23)C[C@@H](O)[C@H](OCCCO)[C@@H]1O	6.3 nM
C=C1/C(=C\C=C2/CCC[C@]3(C)[C@@H]([C@H](C)C[C@H]4OC(=O)C(=C)[C@@H]4CCC)CC[C@@H]23)C[C@@H](O)C[C@@H]1O	6 nM

Structure (SMILES)	IC50
C=C1/C(=C\C=C2/CCC[C@]3(C)[C@@H]([C@H](C)C[C@@H]4OC(=O)C(=C)[C@@H]4C)CC[C@@H]23)C[C@@H](O)[C@H](C)[C@@H]1O	6.8 nM
C=C1/C(=C\C=C2/CCC[C@]3(C)[C@@H]([C@H](C)C[C@H]4OC(=O)C(=C)[C@H]4CC(C)C)CC[C@@H]23)C[C@@H](O)[C@H](CCCO)[C@@H]1O	9.3 nM
C=C1/C(=C\C=C2/CCC[C@]3(C)[C@@H]([C@H](C)C[C@H]4OC(=O)C(=C)[C@H]4CC)CC[C@@H]23)C[C@@H](O)[C@H](CCCO)[C@@H]1O	8.4 nM
C=C1/C(=C\C=C2/CCC[C@]3(C)[C@@H]([C@H](C)C[C@H]4OC(=O)C(=C)[C@H]4CCCC)CC[C@@H]23)C[C@@H](O)[C@H](OCCCO)[C@@H]1O	8.8 nM
C=C1/C(=C\C=C2/CCC[C@]3(C)[C@@H]([C@H](C)C[C@@H]4OC(=O)C(=C)[C@@H]4CCCC)CC[C@@H]23)C[C@@H](O)[C@H](OCCCO)[C@@H]1O	8.8 nM
C=C1/C(=C\C=C2/CCC[C@]3(C)[C@@H]([C@H](C)C[C@H]4OC(=O)C(=C)[C@@H]4CC)CC[C@@H]23)C[C@@H](O)[C@H](C)[C@@H]1O	6.7 nM
C=C1C(=O)O[C@H](C[C@@H](C)[C@H]2CC[C@H]3/C(=C/C=C4/C[C@@H](O)[C@H](OCCCO)[C@H](O)C4=C)CCC[C@]23C)[C@@H]1C	6.1 nM
C=C1C(=O)O[C@H](C[C@@H](C)[C@H]2CC[C@H]3/C(=C/C=C4/C[C@@H](O)C[C@H](O)C4=C)CCC[C@]23C)[C@@H]1CCCC	8.2 nM
C=C1C(=O)O[C@@H](C[C@@H](C)[C@H]2CC[C@H]3/C(=C/C=C4/C[C@@H](O)C[C@H](O)C4=C)CCC[C@]23C)[C@@H]1CC(C)C	9.3 nM
C=C1/C(=C\C=C2/CCC[C@]3(C)[C@@H]([C@H](C)C[C@@H]4OC(=O)C(=C)[C@@H]4CCCC)CC[C@@H]23)C[C@@H](O)[C@H](CCCO)[C@@H]1O	8.8 nM
C=C1/C(=C\C=C2/CCC[C@]3(C)[C@@H]([C@H](C)C[C@@H]4OC(=O)C(=C)[C@@H]4CCCC)CC[C@@H]23)C[C@@H](O)[C@H](C)[C@@H]1O	6.7 nM
C=C1C(=O)O[C@H](C[C@@H](C)[C@H]2CC[C@H]3/C(=C/C=C4/C[C@@H](O)C[C@H](O)C4=C)CCC[C@]23C)[C@@H]1C	9.2 nM
C=C1/C(=C\C=C2/CCC[C@]3(C)[C@@H]([C@H](C)C[C@H]4OC(=O)C(=C)[C@@H]4C)CC[C@@H]23)C[C@@H](O)C[C@@H]1O	11 nM
C=C1/C(=C\C=C2/CCC[C@]3(C)[C@@H]([C@H](C)C[C@H]4OC(=O)C(=C)[C@@H]4C)CC[C@@H]23)C[C@@H](O)[C@H](CCCO)[C@@H]1O	6.2 nM
C=C1C(=O)O[C@H](C[C@@H](C)[C@H]2CC[C@H]3/C(=C/C=C4/C[C@@H](O)[C@H](CCCO)[C@H](O)C4=C)CCC[C@]23C)[C@@H]1C	6.2 nM
C=C1C(=O)O[C@@H](C[C@@H](C)[C@H]2CC[C@H]3/C(=C/C=C4/C[C@@H](O)[C@H](CCCO)[C@H](O)C4=C)CCC[C@]23C)[C@@H]1C	6.2 nM
C=C1/C(=C\C=C2/CCC[C@]3(C)[C@@H]([C@H](C)C[C@@H]4OC(=O)C(=C)[C@H]4CC)CC[C@@H]23)C[C@@H](O)[C@H](OCCCO)[C@@H]1O	8.4 nM
C=C1C(=O)O[C@@H](C[C@@H](C)[C@H]2CC[C@H]3/C(=C/C=C4/C[C@@H](O)[C@H](OCCCO)[C@H](O)C4=C)CCC[C@]23C)[C@@H]1C	6.1 nM
C=C1/C(=C\C=C2/CCC[C@]3(C)[C@@H]([C@H](C)C[C@H]4OC(=O)C(=C)[C@@H]4CC(C)C)CC[C@@H]23)C[C@@H](O)[C@H](OCCCO)[C@@H]1O	9.3 nM

Structure (SMILES)	IC50
C=C1/C(=C\C=C2/CCC[C@]3(C)[C@@H]([C@H](C)C[C@@H]4OC(=O)C(=C)[C@@H]4CC)CC[C@@H]23)C[C@@H](O)[C@H](C)[C@@H]1O	6.7 nM
C=C1C[C@@H](C[C@@H](C)[C@H]2CC[C@H]3/C(=C/C=C4/C[C@@H](O)C[C@H](O)C4=C)CCC[C@]23C)OC1=O	6 nM
C=C1/C(=C\C=C2/CCC[C@]3(C)[C@@H]([C@H](C)C[C@H]4OC(=O)C(=C)[C@@H]4CCC)CC[C@@H]23)C[C@@H](O)[C@H](OCCCO)[C@@H]1O	6.3 nM
C=C1/C(=C\C=C2/CCC[C@]3(C)[C@@H]([C@H](C)C[C@@H]4OC(=O)C(=C)[C@@H]4CC(C)C)CC[C@@H]23)C[C@@H](O)C[C@@H]1O	9.5 nM
C=C1/C(=C\C=C2/CCC[C@]3(C)[C@@H]([C@H](C)C[C@@H]4OC(=O)C(=C)[C@H]4CC)CC[C@@H]23)C[C@@H](O)[C@H](C)[C@@H]1O	6.7 nM
C=C1/C(=C\C=C2/CCC[C@]3(C)[C@@H]([C@H](C)C[C@@H]4OC(=O)C(=C)[C@@H]4CCCC)CC[C@@H]23)C[C@@H](O)C[C@@H]1O	8.2 nM
C=C1C[C@H](C[C@@H](C)[C@H]2CC[C@H]3/C(=C/C=C4/C[C@@H](O)C[C@H](O)C4=C)CCC[C@]23C)OC1=O	6.3 nM
C=C1C(=O)O[C@H](C[C@@H](C)[C@H]2CC[C@H]3/C(=C/C=C4/C[C@@H](O)C[C@H](O)C4=C)CCC[C@]23C)[C@@H]1CC	8.6 nM
C=C1/C(=C\C=C2/CCC[C@]3(C)[C@@H]([C@H](C)C[C@@H]4OC(=O)C(=C)[C@H]4CC(C)C)CC[C@@H]23)C[C@@H](O)[C@H](OCCCO)[C@@H]1O	9.3 nM
C=C1/C(=C\C=C2/CCC[C@]3(C)[C@@H]([C@H](C)C[C@H]4OC(=O)C(=C)[C@@H]4C)CC[C@@H]23)C[C@@H](O)[C@H](C)[C@@H]1O	8.1 nM
C=C1/C(=C\C=C2/CCC[C@]3(C)[C@@H]([C@H](C)C[C@H]4OC(=O)C(=C)[C@H]4CC)CC[C@@H]23)C[C@@H](O)[C@H](C)[C@@H]1O	6.7 nM
C=C1/C(=C\C=C2/CCC[C@]3(C)[C@@H]([C@H](C)C[C@@H]4OC(=O)C(=C)[C@@H]4CCC)CC[C@@H]23)C[C@@H](O)[C@H](C)[C@@H]1O	6.3 nM
C=C1C(=O)O[C@@H](C[C@@H](C)[C@H]2CC[C@H]3/C(=C/C=C4/C[C@@H](O)C[C@H](O)C4=C)CCC[C@]23C)[C@@H]1CC	8.6 nM
C=C1/C(=C\C=C2/CCC[C@]3(C)[C@@H]([C@H](C)C[C@@H]4OC(=O)C(=C)[C@@H]4CCC)CC[C@@H]23)C[C@@H](O)C[C@@H]1O	6 nM
C=C1/C(=C\C=C2/CCC[C@]3(C)[C@@H]([C@H](C)C[C@@H]4OC(=O)C(=C)[C@H]4CC(C)C)CC[C@@H]23)C[C@@H](O)[C@H](CCCO)[C@@H]1O	9.3 nM
C=C1C(=O)O[C@@H](C[C@@H](C)[C@H]2CC[C@H]3/C(=C/C=C4/C[C@@H](O)C[C@H](O)C4=C)CCC[C@]23C)[C@@H]1C	7.7 nM
C=C1/C(=C\C=C2/CCC[C@]3(C)[C@@H]([C@H](C)C[C@H]4OC(=O)C(=C)[C@@H]4CCCC)CC[C@@H]23)C[C@@H](O)[C@H](OCCCO)[C@@H]1O	8.8 nM
C=C1/C(=C\C=C2/CCC[C@]3(C)[C@@H]([C@H](C)C[C@@H]4OC(=O)C(=C)[C@@H]4C)CC[C@@H]23)C[C@@H](O)C[C@@H]1O	7.7 nM
